Source: patent publication US20240285642A1, “EGFR INHIBITOR FOR THE TREATMENT OF HEAD AND NECK CANCER” (NATCO PHARMA LIMITED, priority 2021, published 2024)
Read-outs that look alike come from different tables or passages of the source.

Assays:
[1] = test system: head and neck cancer cell line; settings: Parkinson et al 2007; cited from earlier work
[2] = test system: recurrent squamous cell carcinoma of the head and neck; test: Phase I clinical study: tumour evaluation per RECIST 1.1; assay type: in vivo, human
Procedure: A Phase I clinical study was conducted to evaluate the safety, pharmacokinetics and anti-tumour activity of NRC-2694-A (NRC-2694 dihydrochloride) in patients with recurrent squamous cell carcinoma of the head and neck.
An open label, prospective, non-randomized, multicentre, dose escalation study was performed. The starting dose selected for this study was 100 mg/day and the maximum dose received was 500 mg/day. Eligible subjects were housed in a unit of the hospital for 12 days, beyond which patients who tolerated the drug were treated on out-patient (ambulatory) basis.
Tumour Evaluation: Change in the size of evaluable tumour from base line was evaluated as per RECIST criteria (version 1.1).

[3] = Phase I clinical study: safety, MTD and DLT; assay type: in vivo
Procedure: An open label, prospective, non-randomized, multicentre, dose escalation study was performed. The starting dose selected for this study was 100 mg/day and the maximum dose received was 500 mg/day.
Safety: Assessments were performed within 7 days before administration of study medication and subsequently on Days 12, 18, 24, 30, 45, 60, 75 and 90. However, for assessing the DLT and MTD first 30 day safety data was considered.

[4] = Phase I clinical study: plasma pharmacokinetics (LC-MS/MS); assay type: in vivo, human; settings: 100 mg/day to 500 mg/day
Procedure: Secondary: To evaluate the single and multiple dose pharmacokinetics and anti-tumour activity of NRC-2694-A. An open label, prospective, non-randomized, multicentre, dose escalation study was performed. The starting dose selected for this study was 100 mg/day and the maximum dose received was 500 mg/day. Eligible subjects were housed in a unit of the hospital for 12 days, beyond which patients who tolerated the drug were treated on out-patient (ambulatory) basis. Pharmacokinetic Evaluation: Estimation of NRC-2694 in plasma was done using a validated LC-MS/MS method. Based on the plasma concentration data, non-compartmental pharmacokinetic variables viz. area under the curve (AUC), peak plasma concentration (Cmax), time to peak plasma concentration (Tmax), and elimination rate constant, volume of distribution, half-life and clearance were calculated for single dose (on Day 1) as well as at steady state (on Day 12). Blood samples at pre-dose, 0.5, 1, 1.5, 2, 2.5, 3, 4, 6, 8, 12 and 24 hrs were collected in K2 EDTA prefilled vacutainers.

[5] = test system: recurrent and/or metastatic squamous cell carcinoma of the head and neck (R/M HNSCC); test: Phase II randomized study: efficacy (PFS, ORR, RECIST 1.1); assay type: in vivo, human
Text: Primary objective: The primary objective was to evaluate the efficacy of NRC-2694-A in combination with platinum plus paclitaxel regimen compared to platinum plus paclitaxel regimen alone in terms of progression free survival (PFS) in patients with recurrent and/or metastatic squamous cell carcinoma of the head and neck (R/M HNSCC).
Secondary objectives: The secondary objective was (a) to compare the objective response rate in patients with R/M HNSCC treated with NRC-2694-A in combination with platinum plus paclitaxel regimen compared to platinum plus paclitaxel regimen alone and (b) to compare the safety and tolerability of the two regimens.
The study was an open-label, prospective, randomized, active controlled, multicentric phase-II study of NRC-2694-A in patients with histologically/cytologically confirmed HNSCC with radiological progression (recurrence and/or metastasis).
Patients between 18 and 65 years of age with life expectancy≥3 months having recurrent and/or metastatic disease for whom cisplatin/carboplatin plus paclitaxel regimen was planned were eligible for the study. Those who fit all the inclusion and exclusion criteria were randomized to receive either chemotherapy+NRC-2694-A (study drug arm) or chemotherapy alone (control arm). • Arm-I (study drug arm): NRC-2694-A+cisplatin/carboplatin and paclitaxel • Arm-II (control arm): cisplatin/carboplatin and paclitaxel
During the study, 300 mg NRC-2694-A was administered once daily in the morning with or without food with 240 ml of water. The dose of cisplatin was 100 mg/m^2 of body surface area as intravenous infusion over an hour. Alternatively, the dose of carboplatin was based on the target area under the curve (AUC) equivalent to 5 mg/mL/min, as an infusion over 1 hour. The choice of platinum compound was per the investigator's discretion and was dependent on the type of platinum received during prior therapy, avoiding repetition. Paclitaxel was given at a dose of 175 mg/m^2 of body surface area as an infusion over 3 hours. • Monotherapy: After completion of 6 cycles of chemotherapy in control arm or in study drug arm, patients received 300 mg of NRC-2694-A once daily as a monotherapy.

[6] = test system: R/M HNSCC; settings: cited from earlier work
[7] = Stage-II monotherapy, among the 4 patients with partial response in Stage-I

Molecule: C#Cc1cccc(Nc2ncnc3cc(OC)c(OCCCN4CCOCC4)cc23)c1 [NRC-2694, (3-Ethynyl-phenyl)-[7-methoxy-6-(3-morpholin-4-yl-propoxy)-quinazolin-4-yl]-amine]
- inhibition of growth of a head and neck cancer cell line grafted into athymic female mice [1]: low to moderate inhibition

Molecule: C#Cc1cccc(Nc2ncnc3cc(OC)c(OCCCN4CCOCC4)cc23)c1.Cl.Cl [NRC-2694-A, N-(3-ethynylphenyl)-7-methoxy-6-(3-morpholinopropoxy) quinazolin-4-amine dihydrochloride]
- Outcome (tumour evaluation) ([2]; Subject No. 0202, Head and Neck, 120 days completed): Stable Disease
- Outcome (tumour evaluation) ([2]; Subject No. 0207, Head and Neck, 79 days completed): Stable Disease
- Outcome (tumour evaluation) ([2]; Subject No. 0211, Head and Neck, 120 days completed): Stable Disease
- Outcome (tumour evaluation) ([2]; Subject No. 0212, Head and Neck, 120 days completed): Partial Response
- Outcome (tumour evaluation) ([2]; Subject No. 0216, Head and Neck, 120 days completed): Stable Disease
- anti-tumour activity (effect on tumour size) ([2]; patients with recurrent squamous cell carcinoma of the head and neck, oral once daily): tumour size reduction or tumour size stasis
- safety profile ([3]; once daily administration, Phase I): tolerable safety profile
- MTD (maximum tolerated dose) ([3]; oral once daily, dose escalation 100 to 500 mg/day, first 30 day safety data): 400 mg/day
- plasma concentration versus dose ([4]; Day-1 and Day-12 concentrations): dose dependent increase
- relationship of pharmacokinetics to dose ([4]; patients): Dose proportional relationship
- patients in whom complete response was maintained ([5]; Stage-II monotherapy 300 mg once daily, Arm-I patients with complete response in Stage-I): 2 patients
- patients continuing to have partial response [5, 7]: one
- patients with progressive disease [5, 7]: 1 patients
- patients with stable disease [5, 7]: 2 patients
- patients continuing to have progressive disease ([5]; Stage-II monotherapy, patient with progressive disease in Stage-I): 1 patients
- patients achieving complete response ([5]; Stage-II monotherapy, patients from Arm-II with partial response and stable disease earlier): 2 patients
- patients continuing to have stable disease ([5]; Stage-II monotherapy, patients with stable disease in Stage-I): Two

Molecule: Pembrolizumab: approved monoclonal antibody, immunotherapy for R/M HNSCC
- ORR ([6]; Pembrolizumab alone, CPS>20 population): 26%
- ORR ([6]; combination of Pembrolizumab and platinum-based chemotherapy): 36%
